One assay addresses T1, K-Ras G12S (Homo sapiens, UniProt P01116, G12S).
T1 construct: made in house; host or cells: E. coli BL21 (DE3)
Put plainly: HTRF resonance energy transfer assay, K-Ras G12S / SOS1 interaction. The assay is classed as biochemical. Particulars: HTRF assay of Example 5; read-out: IC50 against K-Ras G12S. In short, it runs like this: (§1)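 Buffer about 5 mM HEPES pH 7.4 with ~150 mM NaCl, ~1 mM DTT, 0.05% BSA, 0.0025% (v/v) Igepal. Protein constructs used at molarity matching the IC50 range studied (e.g. ~500 nM). FRET between tagged K-Ras and hSOS1 measured after short incubation.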
A general note: In TR-FRET formats the signal depends on donor and acceptor labels being close together.

The test system of another assay is SW620 cells. Put plainly: Ras cellular assay, growth of cells with K-Ras G12V mutation (CellTiter-Glo). Particulars: Homo sapiens, SW-620; cell growth, Example 9, G12V mutation; read-out: IC50 against SW620 cells. The assay is classed as cell-based. In short, it runs like this:
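IC50 values came from a four-parameter fit of CellTiter-Glo viability, read roughly 6 days after dosing with e.g. a 10-point threefold dilution series. G12V-mutant SW620 cells (e.g. 800 per well) had been plated the previous day in RPMI-1640/10% heat-inactivated FBS, on tissue culture-treated or ultra-low attachment plates.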

Another assay deals with GP2D cells. Put plainly: Ras cellular assay, growth of cells with K-Ras G12D mutation (CellTiter-Glo). The assay is classed as cell-based. As to conditions: cell growth, Example 9, G12D mutation, read-out: IC50 against GP2D cells.
The next assay has as its target T2, K-Ras G12D (Homo sapiens, UniProt P01116, G12D).
T2 construct: made in house; host or cells: E. coli BL21 (DE3)
Put plainly: HTRF resonance energy transfer assay, K-Ras G12D / SOS1 interaction. The assay is classed as biochemical. Particulars: HTRF assay of Example 5; read-out: IC50 against K-Ras G12D. The method, boiled down: as §1

The next assay addresses T3, K-Ras WT (Homo sapiens, UniProt P01116).
T3 construct: made in house; host or cells: E. coli BL21 (DE3)
Put plainly: HTRF resonance energy transfer assay, K-Ras WT / SOS1 interaction. The assay is classed as biochemical. Particulars: HTRF assay of Example 5; read-out: IC50 against K-Ras WT. In short, it runs like this:
as §1

The next assay deals with T4, K-Ras G12V (Homo sapiens, UniProt P01116, G12V).
T4 construct: made in house; host or cells: E. coli BL21 (DE3)
T4 sequence (P01116 1-188 isoform P01116-2 G12V): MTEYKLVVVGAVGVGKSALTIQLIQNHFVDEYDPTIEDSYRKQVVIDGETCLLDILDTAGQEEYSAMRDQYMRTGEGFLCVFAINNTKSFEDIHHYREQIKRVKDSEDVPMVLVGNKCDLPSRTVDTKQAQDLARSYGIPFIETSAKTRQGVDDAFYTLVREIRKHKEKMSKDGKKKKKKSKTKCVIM
Put plainly: HTRF resonance energy transfer assay, K-Ras G12V / SOS1 interaction. Particulars: HTRF assay of Example 5; read-out: IC50 against K-Ras G12V. The assay is classed as biochemical. In short, it runs like this:
as §1

Bounds are passed on as bounds.

T2 sequence (P01116 1-188 isoform P01116-2 G12D): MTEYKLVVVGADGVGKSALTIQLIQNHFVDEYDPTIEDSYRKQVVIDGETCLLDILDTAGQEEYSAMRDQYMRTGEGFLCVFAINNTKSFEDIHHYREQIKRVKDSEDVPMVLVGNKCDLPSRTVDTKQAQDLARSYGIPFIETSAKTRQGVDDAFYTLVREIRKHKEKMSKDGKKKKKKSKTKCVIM
T1 sequence (P01116 1-188 isoform P01116-2 G12S): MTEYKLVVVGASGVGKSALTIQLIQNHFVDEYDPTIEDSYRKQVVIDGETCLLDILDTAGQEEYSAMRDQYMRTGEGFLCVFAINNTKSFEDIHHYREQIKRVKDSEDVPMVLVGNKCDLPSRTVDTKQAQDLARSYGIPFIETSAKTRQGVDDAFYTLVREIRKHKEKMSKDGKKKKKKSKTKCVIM
T3 sequence (P01116 1-188 isoform P01116-2): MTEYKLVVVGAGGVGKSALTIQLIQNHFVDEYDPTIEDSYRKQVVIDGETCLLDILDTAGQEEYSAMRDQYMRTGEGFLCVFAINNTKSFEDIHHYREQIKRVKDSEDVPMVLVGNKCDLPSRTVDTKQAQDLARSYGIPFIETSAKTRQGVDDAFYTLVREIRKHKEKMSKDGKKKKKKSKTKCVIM

As for `N#Cc1c(N)sc2c(F)ccc(-c3c(Cl)c4c5c(nc(OC[C@@]67CCCN6C[C@H](F)C7)nc5c3F)N(CC(F)F)[C@@H](C(F)(F)F)CO4)c12` [Compound 672, 2-amino-4-((R)-8-chloro-4-(2,2-difluoroethyl)-10-fluoro-2-(((2R,7aS)-2-fluorotetrahydro-1H-pyrrolizin-7a(5H)-yl)methoxy)-5-(trifluoromethyl)-5,6-dihydro-4H-[1,4]oxazepino[5,6,7-de]quinazolin-9-yl)-7-fluorobenzo[b]thiophene-3-carbonitrile], the IC50 was < 100 nM on K-Ras G12S; < 5000 nM in the assay with SW620 cells; < 500 nM with GP2D cells; < 100 nM on K-Ras G12D; < 100 nM on K-Ras WT; < 100 nM on K-Ras G12V.

`N#Cc1c(N)sc2c(F)ccc(-c3c(Cl)c4c5c(nc(OC[C@@]67CCCN6C[C@H](F)C7)nc5c3F)N(CC(F)F)[C@H](C3(C#N)CC3)CO4)c12` [Compound 722, 2-amino-4-((R)-8-chloro-5-(1-cyanocyclopropyl)-4-(2,2-difluoroethyl)-10-fluoro-2-(((2R,7aS)-2-fluorotetrahydro-1H-pyrrolizin-7a(5H)-yl)methoxy)-5,6-dihydro-4H-[1,4]oxazepino[5,6,7-de]quinazolin-9-yl)-7-fluorobenzo[b]thiophene-3-carbonitrile]: the IC50 is < 100 nM on K-Ras G12S; < 5000 nM in the assay on SW620 cells; < 500 nM in the assay on GP2D cells; < 100 nM at K-Ras G12D; < 100 nM on K-Ras WT; < 100 nM on K-Ras G12V.

As to `C[C@H]1C(C(F)F)Oc2c(Cl)c(-c3ccc(F)c4sc(N)c(C#N)c34)c(F)c3nc(OC[C@@]45CCCN4C[C@H](F)C5)nc(c23)N1CC(F)F` (stereo partly drawn) [Compound 723, 2-amino-4-((5S)-8-chloro-4-(2,2-difluoroethyl)-6-(difluoromethyl)-10-fluoro-2-(((2R,7aS)-2-fluorotetrahydro-1H-pyrrolizin-7a(5H)-yl)methoxy)-5-methyl-5,6-dihydro-4H-[1,4]oxazepino[5,6,7-de]quinazolin-9-yl)-7-fluorobenzo[b]thiophene-3-carbonitrile], the IC50 was < 100 nM on K-Ras G12S; < 5000 nM with SW620 cells; < 500 nM in the assay on GP2D cells; < 100 nM on K-Ras G12D; < 100 nM at K-Ras WT; < 100 nM on K-Ras G12V.

`CC(O)C1COc2c(Cl)c(-c3ccc(F)c4sc(N)c(C#N)c34)c(F)c3nc(OC[C@@]45CCCN4C[C@H](F)C5)nc(c23)N1CCN(C)C` (stereo partly drawn) [Compound 745, 2-amino-4-(8-chloro-4-(2-(dimethylamino)ethyl)-10-fluoro-2-(((2R,7aS)-2-fluorotetrahydro-1H-pyrrolizin-7a(5H)-yl)methoxy)-5-(1-hydroxyethyl)-5,6-dihydro-4H-[1,4]oxazepino[5,6,7-de]quinazolin-9-yl)-7-fluorobenzo[b]thiophene-3-carbonitrile]: the IC50 at K-Ras G12S is < 100 nM; in the assay with SW620 cells, < 5000 nM; in the assay on GP2D cells it was < 500 nM; on K-Ras G12D it was < 100 nM; at K-Ras WT it was < 100 nM; on K-Ras G12V it was < 100 nM.

Consider `N#Cc1c(N)sc2c(F)ccc(-c3c(Cl)c4c5c(nc(OC[C@@]67CCCN6C[C@H](F)C7)nc5c3F)N(CC(F)F)CCO4)c12` [Compound 748, 2-amino-4-(8-chloro-4-(2,2-difluoroethyl)-10-fluoro-2-(((2R,7aS)-2-fluorotetrahydro-1H-pyrrolizin-7a(5H)-yl)methoxy)-5,6-dihydro-4H-[1,4]oxazepino[5,6,7-de]quinazolin-9-yl)-7-fluorobenzo[b]thiophene-3-carbonitrile], for which the IC50 on K-Ras G12S was < 100 nM; in the assay on SW620 cells, < 5000 nM; with GP2D cells, < 500 nM; at K-Ras G12D it was < 100 nM; on K-Ras WT, < 100 nM; on K-Ras G12V, < 100 nM.

For `C[C@H](O)[C@H]1COc2c(Cl)c(-c3ccc(F)c4sc(N)c(C#N)c34)c(F)c3nc(OC[C@@]45CCCN4C[C@H](F)C5)nc(c23)N1` [Compound 775, 2-amino-4-((5R)-8-chloro-10-fluoro-2-(((2R,7aS)-2-fluorotetrahydro-1H-pyrrolizin-7a(5H)-yl)methoxy)-5-((S)-1-hydroxyethyl)-5,6-dihydro-4H-[1,4]oxazepino[5,6,7-de]quinazolin-9-yl)-7-fluorobenzo[b]thiophene-3-carbonitrile], the half-maximal inhibitory concentration (IC50) is < 100 nM on K-Ras G12S; < 5000 nM in the assay on SW620 cells; < 500 nM with GP2D cells; < 100 nM at K-Ras G12D; < 100 nM on K-Ras WT; < 100 nM on K-Ras G12V.

In the case of `N#Cc1c(N)sc2c(F)ccc(-c3c(Cl)c4c5c(nc(OC[C@@]67CCCN6C[C@H](F)C7)nc5c3F)N(C3CCCCC(O)C3)CCO4)c12` (stereo partly drawn) [Compound 795, 2-amino-4-(8-chloro-10-fluoro-2-(((2R,7aS)-2-fluorotetrahydro-1H-pyrrolizin-7a(5H)-yl)methoxy)-4-(3-hydroxycycloheptyl)-5,6-dihydro-4H-[1,4]oxazepino[5,6,7-de]quinazolin-9-yl)-7-fluorobenzo[b]thiophene-3-carbonitrile], the IC50 was < 100 nM at K-Ras G12S; < 5000 nM with SW620 cells; < 500 nM in the assay on GP2D cells; < 100 nM on K-Ras G12D; < 100 nM at K-Ras WT; < 100 nM on K-Ras G12V.

On to `CC(C)(O)[C@H]1COc2c(Cl)c(-c3ccc(F)c4sc(N)c(C#N)c34)c(F)c3nc(OC[C@@]45CCCN4C[C@H](F)C5)nc(c23)N1` [Compound 815, 2-amino-4-((5R)-8-chloro-10-fluoro-2-(((2R,7aS)-2-fluorotetrahydro-1H-pyrrolizin-7a(5H)-yl)methoxy)-5-(2-hydroxypropan-2-yl)-5,6-dihydro-4H-[1,4]oxazepino[5,6,7-de]quinazolin-9-yl)-7-fluorobenzo[b]thiophene-3-carbonitrile], for which the IC50 was < 100 nM at K-Ras G12S; < 5000 nM in the assay on SW620 cells; < 500 nM in the assay with GP2D cells; < 100 nM at K-Ras G12D; < 100 nM on K-Ras WT; < 100 nM on K-Ras G12V.

Turning to `N#Cc1c(N)sc2c(F)ccc(-c3c(Cl)c4c5c(nc(OC[C@@]67CCCN6C[C@H](F)C7)nc5c3F)N(CC3CC3C#N)[C@@H](C3(O)CC3)CO4)c12` (stereo partly drawn) [Compound 876, 2-amino-4-((5R)-8-chloro-4-((2-cyanocyclopropyl)methyl)-10-fluoro-2-(((2R,7aS)-2-fluorotetrahydro-1H-pyrrolizin-7a(5H)-yl)methoxy)-5-(1-hydroxycyclopropyl)-5,6-dihydro-4H-[1,4]oxazepino[5,6,7-de]quinazolin-9-yl)-7-fluorobenzo[b]thiophene-3-carbonitrile], the IC50 is < 100 nM at K-Ras G12S; < 5000 nM with SW620 cells; < 500 nM in the assay with GP2D cells; < 100 nM on K-Ras G12D; < 100 nM at K-Ras WT; < 100 nM at K-Ras G12V.

For `CN(C)CCN1c2nc(OC[C@@]34CCCN3C[C@H](F)C4)nc3c(F)c(-c4ccc(F)c5sc(N)c(C#N)c45)c(Cl)c(c23)OCC1CC#N` (stereo partly drawn) [Compound 885, 2-amino-4-(8-chloro-5-(cyanomethyl)-4-(2-(dimethylamino)ethyl)-10-fluoro-2-(((2R,7aS)-2-fluorotetrahydro-1H-pyrrolizin-7a(5H)-yl)methoxy)-5,6-dihydro-4H-[1,4]oxazepino[5,6,7-de]quinazolin-9-yl)-7-fluorobenzo[b]thiophene-3-carbonitrile], the IC50 is < 100 nM at K-Ras G12S; < 5000 nM with SW620 cells; < 500 nM in the assay on GP2D cells; < 100 nM at K-Ras G12D; < 100 nM on K-Ras WT; < 100 nM on K-Ras G12V.

Regarding `CN(C)CCCN1c2nc(OC[C@@]34CCCN3C[C@H](F)C4)nc3c(F)c(-c4ccc(F)c5sc(N)c(C#N)c45)c(Cl)c(c23)OCC1CC#N` (stereo partly drawn) [Compound 896, 2-amino-4-(8-chloro-5-(cyanomethyl)-4-(3-(dimethylamino)propyl)-10-fluoro-2-(((2R,7aS)-2-fluorotetrahydro-1H-pyrrolizin-7a(5H)-yl)methoxy)-5,6-dihydro-4H-[1,4]oxazepino[5,6,7-de]quinazolin-9-yl)-7-fluorobenzo[b]thiophene-3-carbonitrile], the IC50 on K-Ras G12S is < 100 nM; with SW620 cells, < 5000 nM; in the assay on GP2D cells it was < 500 nM; at K-Ras G12D, < 100 nM; on K-Ras WT, < 100 nM; on K-Ras G12V, < 100 nM.

As usually defined, the IC50 is the concentration at which inhibition is half-maximal.

For the origin of these results see patent US12209102B2, “Heterocyclic compounds and uses thereof” (Kumquat Biosciences Inc., priority 2022, dated 2025).
